Source: paper PMC9821843, “Powerful Potential of Polyfluoroalkyl-Containing 4-Arylhydrazinylidenepyrazol-3-ones for Pharmaceuticals” (Molecules, 2022)
In brackets after ≈: the same amount, converted by molar mass. Where two headings read alike, the source gives them in different places.

Key:
[1] = Oxygen radical absorbance capacity (ORAC-FL) assay; conditions: n.a. = inactive; i.t.s. = interferes with test system
In short: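 Fluorescein oxidative degradation by the peroxyl radical generator AAPH is monitored in the presence of test compound, a HAT-based read-out. Activity is expressed relative to Trolox as reference antioxidant.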

[2] = tested on: Trichophyton rubrum RCPF F 1408; experiment: Antifungal susceptibility testing, T. rubrum; conditions: Trichophyton rubrum, RCPFF1408, read-out: MIC for fungi strains inhibition, T. rubrum
Description: (§3) The solvent was DMSO. […] In each test, a growth control and a sterility control were used.

[3] = tested on: Neisseria gonorrhoeae ATCC 49226/NCTC 12700; experiment: Antibacterial activity against Neisseria gonorrhoeae; type: cell-based; conditions: read-out: MIC against Neisseria gonorrhoeae
[4] = target: T1, equine serum butyrylcholinesterase (BChE, EC 3.1.1.8) (Equus caballus, UniProt P81908); experiment: Inhibition of equine serum butyrylcholinesterase (Ellman assay); type: biochemical; conditions: read-out: Inhibition % at 20 µM, Equine BChE
T1 construct: equine serum butyrylcholinesterase (BChE, EC 3.1.1.8); purchased Sigma-Aldrich (Saint Louis, MO, USA); host or cells: equine serum
T1 sequence (P81908 whole entry): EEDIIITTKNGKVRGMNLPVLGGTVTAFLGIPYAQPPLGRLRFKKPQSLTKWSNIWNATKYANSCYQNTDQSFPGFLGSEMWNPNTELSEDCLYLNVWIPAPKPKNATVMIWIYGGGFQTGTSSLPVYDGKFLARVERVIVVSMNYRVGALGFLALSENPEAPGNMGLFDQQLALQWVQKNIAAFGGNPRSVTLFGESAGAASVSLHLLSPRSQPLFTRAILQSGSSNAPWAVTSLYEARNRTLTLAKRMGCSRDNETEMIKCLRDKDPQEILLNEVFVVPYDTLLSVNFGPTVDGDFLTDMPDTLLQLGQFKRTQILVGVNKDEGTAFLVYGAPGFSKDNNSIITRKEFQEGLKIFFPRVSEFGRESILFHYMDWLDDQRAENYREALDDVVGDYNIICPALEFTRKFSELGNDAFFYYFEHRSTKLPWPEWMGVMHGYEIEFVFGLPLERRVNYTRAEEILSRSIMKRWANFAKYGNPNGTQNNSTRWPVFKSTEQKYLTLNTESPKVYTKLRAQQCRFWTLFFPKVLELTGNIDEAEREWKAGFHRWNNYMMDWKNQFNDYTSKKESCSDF
In short: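 Ellman colorimetric assay with 0.02 unit/mL BChE, 1 mM butyrylthiocholine iodide and 0.33 mM DTNB, 2% (v/v) DMSO final; substrate added after enzyme-compound mixing. Residual activity versus inhibitor-free control, blanks without enzyme; triplicates, IC50 by linear regression.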

[5] = target: T2, human erythrocyte acetylcholinesterase (AChE, EC 3.1.1.7) (Homo sapiens, UniProt P22303); experiment: Inhibition of human erythrocyte acetylcholinesterase (Ellman assay); type: biochemical; conditions: read-out: Inhibition % at 20 µM, Human AChE
T2 construct: human erythrocyte acetylcholinesterase (AChE, EC 3.1.1.7); purchased Sigma-Aldrich (Saint Louis, MO, USA); host or cells: human erythrocytes
T2 sequence (P22303 32-617 isoform P22303-2 limits assumed): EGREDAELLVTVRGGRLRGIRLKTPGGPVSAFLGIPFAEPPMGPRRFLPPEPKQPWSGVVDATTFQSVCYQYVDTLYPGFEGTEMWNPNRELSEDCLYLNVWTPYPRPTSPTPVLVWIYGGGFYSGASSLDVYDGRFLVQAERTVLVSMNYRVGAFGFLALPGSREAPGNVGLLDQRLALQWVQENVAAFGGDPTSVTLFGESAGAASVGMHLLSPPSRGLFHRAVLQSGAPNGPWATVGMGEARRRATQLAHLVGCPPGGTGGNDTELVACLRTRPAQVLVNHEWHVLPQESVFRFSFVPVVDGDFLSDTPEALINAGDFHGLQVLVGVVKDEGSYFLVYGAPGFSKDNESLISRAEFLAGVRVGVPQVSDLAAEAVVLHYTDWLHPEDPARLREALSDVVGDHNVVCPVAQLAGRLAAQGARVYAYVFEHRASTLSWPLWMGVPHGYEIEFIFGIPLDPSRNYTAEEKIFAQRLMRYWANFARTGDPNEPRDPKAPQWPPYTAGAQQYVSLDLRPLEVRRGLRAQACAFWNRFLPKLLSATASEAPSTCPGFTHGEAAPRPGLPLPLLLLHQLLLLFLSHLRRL
Description: (§1) The following enzymes were purchased from Sigma-Aldrich (Saint Louis, MO, USA): porcine liver carboxylesterase (CES, EC 3.1.1.1), human erythrocyte acetylcholinesterase (AChE, EC 3.1.1.7) and equine serum butyrylcholinesterase (BChE, EC 3.1.1.8). Substrates for CES, AChE and BChE were 4-nitrophenyl acetate (4-NPA), acetylthiocholine iodide (ATCh) and butyrylthiocholine iodide (BTCh), respectively, and the colorimetric reagent for the AChE and BChE assays was 5,5’-dithio-bis-(2-nitrobenzoic acid) (DTNB) (Sigma-Aldrich). All the kinetic experiments were performed under standard conditions, according to the protocol of IPAC RAS for a reversible inhibitors study.
Reagent blanks consisted of reaction mixtures without enzyme to assess non-enzymatic hydrolysis of substrates.
Test compounds were dissolved in DMSO. Reaction mixtures contained a final DMSO concentration of 2% (v/v). […] Measurements were performed in a Bio-Rad Benchmark Plus microplate reader. Each experiment was performed in triplicate. Plots, linear regressions and values of IC50, were determined using Origin 6.1 for Windows, OriginLab (Northampton, MA, USA).

[6] = tested on: Microsporum canis RCPF F 1643/1585; experiment: Antifungal susceptibility testing, M. canis; conditions: Microsporum canis, RCPFF1643/1585, read-out: MIC for fungi strains inhibition, M. canis
Description: as §3

[7] = tested on: Epidermophyton floccosum RCPF F 1659/17; experiment: Antifungal susceptibility testing, E. floccosum; conditions: Epidermophyton floccosum, RCPFF1659/17, read-out: MIC for fungi strains inhibition, E. floccosum
Description: as §3

[8] = tested on: Sprague-Dawley (SD) rats; experiment: Hot plate test (analgesic activity); type: in vivo; conditions: Rattus norvegicus, hot plate test, rats, ip, dose 15 mg/kg, n.a. = inactive (p > 0.05)
In short: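 Test compounds were given i.p. as suspensions in 1% starch mucilage to SD rats (3 male, 3 female per group), vehicle as negative control. At 1 and 2 h post-dose, latency to nociceptive response (jumping, hind paw licking/shaking) on a 50 °C plate was recorded, 30 s cutoff.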

[9] = target: porcine liver carboxylesterase (CES, EC 3.1.1.1) (Sus scrofa, UniProt Q29550); experiment: Inhibition of porcine liver carboxylesterase (4-NPA colorimetric assay); type: biochemical; conditions: 20 µM; n.a. = inactive at 20 µM; mean ± SEM, n = 3
Chain of porcine liver carboxylesterase (CES, EC 3.1.1.1) (Q29550 19-566): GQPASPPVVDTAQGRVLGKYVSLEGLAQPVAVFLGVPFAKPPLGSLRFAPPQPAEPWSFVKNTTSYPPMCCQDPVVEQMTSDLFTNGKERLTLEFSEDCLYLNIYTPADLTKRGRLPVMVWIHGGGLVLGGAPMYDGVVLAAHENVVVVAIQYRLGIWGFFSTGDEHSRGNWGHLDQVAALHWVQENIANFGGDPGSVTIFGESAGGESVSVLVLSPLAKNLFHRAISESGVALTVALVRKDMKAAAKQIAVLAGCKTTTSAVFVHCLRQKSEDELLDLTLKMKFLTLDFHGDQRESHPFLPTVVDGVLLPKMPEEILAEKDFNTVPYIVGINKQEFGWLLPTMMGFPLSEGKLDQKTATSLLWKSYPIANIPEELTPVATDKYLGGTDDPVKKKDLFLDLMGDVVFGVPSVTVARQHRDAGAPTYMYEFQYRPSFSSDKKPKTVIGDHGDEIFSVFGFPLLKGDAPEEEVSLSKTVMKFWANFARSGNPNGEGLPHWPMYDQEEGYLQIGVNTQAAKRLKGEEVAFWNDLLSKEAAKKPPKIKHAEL
Description: as §1
The CES (porcine liver) activity was assessed colorimetrically in 0.1 M K/Na phosphate buffer pH 8.0, 25 °C, by measuring the absorbance of 4-nitrophenol at 405 nm. Final enzyme and substrate (4-NPA) concentrations were 0.02 unit/mL and 1 mM, respectively. Reagent blanks included all constituents except enzyme.
Test compounds were dissolved in DMSO. Reaction mixtures contained a final DMSO concentration of 2% (v/v). Enzyme inhibition was first assessed at a single concentration of 20 µM for each compound after a 5 min incubation at 25 °C in three separate experiments. […] Substrate was then added and residual enzyme activity relative to an inhibitor-free control was measured using a Bio-Rad Benchmark Plus microplate reader (Marnes-la-Coquette, France).
Measurements were performed in a Bio-Rad Benchmark Plus microplate reader. Each experiment was performed in triplicate. Plots, linear regressions and values of IC50, were determined using Origin 6.1 for Windows, OriginLab (Northampton, MA, USA). Results were calculated using GraphPad Prism version 6.05 for Windows, GraphPad Software (La Jolla, CA, USA) and presented as mean ± SEM.

[10] = Acute toxicity evaluation in mice (ip); conditions: CD-1, mouse, in vivo, 300 mg/kg
Description: The toxicity evaluation was performed on CD-1 mice. […] The tested compounds in 1% starch mucilage were injected intraperitoneally into three mice. Then, animals were observed during 14 days, the number of deaths was counted and % of viability calculated.

[11] = tested on: Candida albicans RCPF Y 401/NCTC 885/653; experiment: Antifungal susceptibility testing, C. albicans; conditions: NCTC885, read-out: MIC for fungi strains inhibition, C. albicans
Description: as §3

[12] = tested on: HeLa tumor cell line; experiment: Cytotoxicity against HeLa cells (MTT assay); type: cell-based, human; conditions: Homo sapiens, HeLa, 72 h, read-out: IC50, HeLa
Description: (§2) Cytotoxicity of compounds was evaluated using a culture of human dermal fibroblasts, which were isolated in the Laboratory of Cell Cultures of the Institute of Medical Cell Technologies, Ekaterinburg, Russia and a HeLa tumor cell line obtained at the shared research facility «Vertebrate cell culture collection» of the Institute of Cytology of the Russian Academy of Sciences, St. Petersburg, Russia. Cells were seeded in 96-well plates in the inoculum dose of 2 × 10^5 cells/mL and cultured for 24 h in DMEM, with 1% glutamine in the presence of 10% fetal bovine serum and gentamicin (50 mg/L) at 37 °C, with humidified atmosphere of 5% CO2. Then compounds, which were dissolved in DMSO, were added to the wells at the final concentrations of 10^–7, 10^–6, 10^–5 and 10^–4 M. The cells were incubated with compounds for 72 h, after which cell viability was assessed using the standard MTT assay. The assay was carried out in four replicates with negative (culture medium), positive (solution of the cytotoxic drug camptothecin at a concentration of 3 mM) controls and the solvent control (DMSO). The results of the MTT assay were evaluated on a Tecan Infinite M200 PRO (Tecan Austria GmbH, Grödig, Austria) plate spectrophotometer by comparing the optical density of a formazan solution at 570 nm in the assay and control wells. The half maximal inhibitory concentrations (IC50) were calculated by AAT Bioquest-calculator (https://www.aatbio.com/tools/ic50-calculator (accessed on 14 November 2022)).

[13] = tested on: human dermal fibroblasts; experiment: Cytotoxicity against human dermal fibroblasts (MTT assay); type: cell-based; conditions: Fibroblast, 72 h, read-out: IC50, Human Dermal Fibroblasts
Description: as §2

[14] = Ferric reducing antioxidant power (FRAP) assay; conditions: 20 μM; n.a. = inactive
Description: The FRAP assay measures the ability of anti-oxidants to reduce the ferric 2,4,6-tripyridyl-s-triazine complex [Fe(TPTZ)2]^3+ to the intensely blue ferrous colored complex [Fe(TPTZ)2]^2+ with an absorption maximum at λ = 593 nm. The reducing ability of a compound is an indicator of its potential anti-oxidant activity. 2,4,6-Tris(pyridin-2-yl)-1,3,5-triazine (TPTZ), FeCl3·6H2O, Trolox and DMSO were obtained from Sigma-Aldrich Chemical Co (St. Louis, MO, USA).
The ferric reducing ability of the compounds was determined by the method in microplate adapted version described in [116]. The FRAP reagent was prepared by mixing acetate buffer (0.3 M, pH 3.6), TPTZ (10 mM in 40 mM HCl) and FeCl3·6H2O (20 mM in distilled water) in a ratio of 10:1:1 immediately before use. Compounds were dissolved in DMSO and tested in the concentration 20 μM. The solvent content in the reaction mixture was 4% (v/v). The test compounds (10 μL of 0.5 mM solution) were added to the FRAP reagent solution (240 μL) and mixed thoroughly. The reaction was carried out at 37 °C in the dark; the incubation time was 1 h. The absorbance at 600 nm was monitored spectrophotometrically by a FLUOStar OPTIMA microplate reader (BMG Labtech, Ortenberg, Germany) at 37 °C. Trolox was used as a reference compound. Values were obtained from four replicates of each sample in three independent experiments.
The ferric reducing ability of compounds was expressed as TE units (antioxidant activity in Trolox equivalent), the values calculated as the ratio of the concentrations of Trolox and the test compound resulting in the same effect. The calculations were carried out using Origin 6.1 for Windows. Results were presented as mean ± SEM, calculated using GraphPad Prism version 6.05 for Windows, GraphPad Software.

[15] = ABTS radical cation scavenging activity assay; parameters: key to ABTS•+-scavenging activity, TEAC (trolox equivalent antioxidant capacity): TEAC = ratio of compound slope to Trolox slope vs ABTS absorbance; conditions: mean ± SEM; for ABTS•+-scavenging activity, TEAC (trolox equivalent antioxidant capacity): n.a. = inactive
In short: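 ABTS•+ (from 7 mM ABTS plus 2.45 mM persulfate) mixed with compound, 5 × 10^–7–4 × 10^–4 M, 1 h at 30 °C; absorbance decrease read at 734 nm. TEAC from slope ratio versus Trolox; IC50 as 50% radical reduction for compounds exceeding 60% reduction at 100 µM.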

[16] = 1 h, read-out: Latent Period Prolongation, % 1 h
[17] = 2 h, read-out: Latent Period Prolongation, % 2 h

O=C1/C(=N\Nc2ccc(Br)cc2)C(C(F)(F)F)=NN1c1ccccc1 [5k, (4Z)-4-[2-(4-Bromophenyl)hydrazinylidene]-2-phenyl-5-(trifluoromethyl)-2,4-dihydro-3H-pyrazol-3-one]
ORAC-FL (TE, antioxidant activity in Trolox equivalents) [1]: i.t.s. | MIC [2]: > 200 µg/mL | MIC [3]: 31.2 µg/mL (≈ 75.9 µM) | inhibition at 20 µM [4]: 6 ± 1.1% | inhibition at 20 µM [5]: 5.4 ± 0.9% | MIC [6]: > 200 µg/mL | MIC [7]: > 200 µg/mL | change in vivo at 15 mg/kg [8, 16]: 89% | change in vivo at 15 mg/kg [8, 17]: 76% | inhibition at 20 µM [9]: 23.2 ± 2% | survival at 14 days [10]: 100% | MIC [11]: > 200 µg/mL

CS(=O)(=O)c1ccc(N/N=C2\C(=O)N(c3ccccc3)N=C2C(F)(F)C(F)(F)F)cc1 [6h, (4Z)-4-(2-[4-(Methylsulfonyl)phenyl]hydrazinylidene)-5-(pentafluoroethyl)-2-phenyl-2,4-dihydro-3H-pyrazol-3-one]
ORAC-FL (TE, antioxidant activity in Trolox equivalents) [1]: i.t.s. | MIC [2]: > 200 µg/mL | MIC [3]: 250 µg/mL (≈ 543 µM) | inhibition at 20 µM [4]: 5.2 ± 0.9% | inhibition at 20 µM [5]: 4.1 ± 0.8% | MIC [6]: > 200 µg/mL | MIC [7]: > 200 µg/mL | change in vivo at 15 mg/kg [8, 16]: 80% | change in vivo at 15 mg/kg [8, 17]: 98% | inhibition at 20 µM [9]: 30.8 ± 2.7% | survival at 14 days [10]: 100% | MIC [11]: > 200 µg/mL

CC[C@@]1(O)C(=O)OCc2c1cc1n(c2=O)Cc2cc3ccccc3nc2-1 [Camptothecin, reference compound]
IC50 [12]: 1.08 ± 0.98 µM | IC50 [13]: 5.38 ± 0.48 µM

COc1cccc2c1C(=O)c1c(O)c3c(c(O)c1C2=O)C[C@@](O)(C(=O)CO)C[C@@H]3O[C@H]1C[C@H](N)[C@H](O)[C@H](C)O1 [Doxorubicin, reference compound]
IC50 ([12]; MTT, n.a. = inactive): 4.25 ± 0.55 µM | IC50 ([13]; MTT, n.a. = inactive): 2.72 ± 0.26 µM

CC1=NN(c2ccccc2)C(=O)C1 [Edaravone, reference compound]
FRAP (TE, antioxidant activity in Trolox equivalents) [14]: 0.80 ± 0.01 | ORAC-FL (TE, antioxidant activity in Trolox equivalents) [1]: 3.71 ± 0.06 | IC50 [15]: 21.4 ± 1.8 µM | ABTS•+-scavenging activity, TEAC (trolox equivalent antioxidant capacity) [15]: 0.96 ± 0.04

Cc1c(C)c2c(c(C)c1O)CCC(C)(C(=O)O)O2 (stereo not drawn) [Trolox, 6-hydroxy-2,5,7,8-tetramethychroman-2-carboxylic acid, reference compound]
FRAP (TE, antioxidant activity in Trolox equivalents) [14]: 1.0 | ORAC-FL (TE, antioxidant activity in Trolox equivalents) [1]: 1.0 | IC50 [15]: 19.7 ± 0.8 µM | ABTS•+-scavenging activity, TEAC (trolox equivalent antioxidant capacity) [15]: 1.0
